Measurements reported in US5858985A, “Treatment of asthma with fructose-1,6-diphosphate” (priority 1997, dated 1999).
Where “and” joins values, the source holds several entries; their conditions need not be identical. Identical values can stand only once. Entries after “also recorded” stand apart in the source; their conditions may differ. Like-named read-outs stand apart in the source and are kept apart here.

What was measured:
human volunteers = experiment: lung function (peak expiratory flow rate) in healthy human volunteers after nebulized inhalation; type: in vivo
Method: When adjusted to deliver 56-68 L/min with a 5-6 L/min oxygen flow, the final oxygen content was 28%. The output tube from the nebulizer was connected to a standard face mask, which was placed on the face of the subject. The bottle of the nebulizer contained 100 ml of the FDP solution. The FDP dose delivered in the mist, during the 5 consecutive breaths, was calculated to be about 12 mg.
Prior to the FDP inhalation, in each volunteer, 3 consecutive peak expiratory flow rate (PEFR) measurements were made with the aid of an Astech Peak Flow Meter (Center Laboratories, Port Washington, N.Y. 11050). Briefly, these tests involved having each volunteer take as deep a breath as possible, and then blow as hard as possible into the meter. This was done over a period of a couple of minutes, giving the volunteer some time to catch their breath before and after each effort. The mean of these three measurements was considered as the baseline PEFR value for that person. Baseline heart rates, systolic and diastolic blood pressures, and body temperatures were also measured.
FDP inhalations (5 breaths in each set) were then made, approximately 15, 30, 45, 75, 105 and 165 minutes after the baseline measurements had been made. On several occasions, FDP inhalations were also made, 2 and 5 minutes after the baseline measurements were taken. After each such inhalation, three different expirations were measured, all within a couple of minutes after the FDP inhalation had been completed. The various measurements made after FDP inhalation were compared with the baseline values, before FDP administration. The t-test was used to compare paired observations, and differences were considered significant only when the two-tailed p value was <0.05.

rat T-lymphocyte = experiment: inhibition of T-lymphocyte proliferation after stimulation with Con-A ((3H)-thymidine incorporation); type: cell-based
Method: Lymphocyte cells were isolated either from human venous blood or rat spleen. The cells were suspended in Dulbecco's media. A manual cell count was done using 0.1 ml of Trypan blue and 0.1 ml of the cell media mixture. […] Tissue culture multi-well plates were used for incubation and in each well 0.1 ml of cell suspension was placed. To the FDP treatment wells (in triplicate) were added 0.1 ml of FDP from 10% stock solution, in serial dilutions which included 1:10, 1:100, 1:250, 1:500; 1:1000, and 1:10000). Cyclosporine treatment wells received 0.1 ml cyclosporine A, at various concentrations including 500 ng/ml, 50 ng/ml; 5 ng/ml and 0.5 ng/ml. All wells except control wells received concanavalin A (conA) at […] (0.01 ml). The final volume for all wells was 0.21 ml.
After incubation, the cells were pulsed in 5% Co2 at 37° C. with 1 μCi of (^3 H)-thymidine (i.e., the cells were incubated for a controlled period of time with thymidine, one of the building blocks of DNA, which contained tritium, a radioactive isotope of hydrogen). The cells were harvested, and washed to remove any tritiated thymidine that had not been incorporated into new DNA. The radioactivity levels of the treated cells were then measured, using a scintillation counter. The results, in Table 2, are reported as counts/min.

[1] = system: human test subject with chronic cough; experiment: repeated FDP inhalation in a volunteer with chronic cough secondary to allergic bronchitis; type: in vivo
Text: This subject participated in several studies over 10 days. Prior to FDP inhalation, their baseline PEFR was 390 L/min. This value increased with each and every FDP treatment.

human IL-2 = experiment: interleukin-2 production by human T-cells stimulated by Con-A (ELISA); type: cell-based; settings: all tested FDP concentrations, result in words
Method: In addition, the amounts of IL-2 released by human T-cells were also evaluated, using ConA stimulation in the presence or absence of FDP. These tests used a commercially available human immunoassay kit (Inter Test-2X IL-2 Elisa Kit, sold by Genzyme Corp., Cambridge, Mass.) which uses monoclonal antibodies that bind specifically to human IL-2. The results, in Table 3, indicate that FDP, at all tested concentrations, abolished IL-2 production by the stimulated human T-lymphocytes. IL-2 concentrations are expressed in picograms per milliliter of media.

[2] = system: Sprague-Dawley rats injected with compound 48/80; experiment: compound 48/80-induced shock (histamine release by mast cells) in rats; type: in vivo, rat
Method: As noted above, the release of histamine by mast cells plays a significant role in aggravating asthma attacks. FDP was evaluated to determine whether it could help suppress histamine release by mast cells, in tests that use a compound called "48/80", which is known to trigger the release of histamine by mast cells. This compound, if injected into an animal at an appropriate dosage, will trigger sufficient histamine release to send the animal into anaphylactic shock, which poses a lethal challenge. Useful physiological measurements can be made during the test period, and if mortality is studied as an endpoint, an animal is deemed to survive if it lives for 48 hours after injection of the 48/80 compound.
Anesthetized male Sprague-Dawley rats (n=20) weighing 448±7.4 gm were randomly assigned into 2 groups. Animals in the FDP-treated group were injected intraperitoneally (IP) with a 10% (w/v) solution of FDP in water, at a dosage of 2.5 gm/kg (i.e., 2.5 grams of FDP per kilogram of body weight). […] Thirty minutes later, all rats were injected IP with compound 48/80, at 5 mg/kg.

[3] = system: membrane-bonded Na+--K+ ATPase enzymes; type: biochemical, rat; settings: pretreatment with 500 μM FDP
Method: Oleander toxins were prepared by air-drying leaves from red-flowering Nerium oleander plants for 4 days, pulverizing the leaves to a fine powder in a blender, and extracting the leaves in a 95% ethyl alcohol solution for 10 days. After extraction, the tincture was filtered, and part of the alcohol solvent was removed by flash evaporation, to a volume where 1 gram of crude drug was equal to 1 ml of alcohol solution. The extract was stored as a stock solution at 0° C., and periodically analyzed for alkaloid content by high pressure liquid chromatography, using oleandrin as an external standard. […]
When ready for use, intact isolated rat hearts were transferred to ice-cold homogenizing medium (50 mM Na2 HPO4, 10 mM Na2 EDTA, and 25 mM NaF, pH 7.4). […]
The pellet obtained after this centrifugation, consisting of crude membrane vesicles, was suspended in a storage buffer (30 mM histidine, 0.25 M sucrose, 10 mM EDTA, and 10 mM NaF, pH 7.5) and stored at -80° C. until use. Protein content was determined using a Biorad protein assay kit, with gamma globulin as a standard.
The Na^+ --K^+ ATPase activity levels for these sarcolemmal membrane preparations was determined calorimetrically by measuring how much inorganic phosphate (Pi) was liberated when the ATPase enzyme hydrolyzed ATP to release phosphate groups. […]

[4] = system: RNA encoding the IL-2 protein; experiment: IL-2 RNA expression in ConA-stimulated lymphocytes (reverse transcription, PCR, densitometry); type: cell-based; settings: rat lymphocytes pre-treated with FDP, ConA stimulation, 5 days of incubation
Method: The Applicant also investigated the expression of cytokines by T-lymphocytes. Isolated lymphocytes were obtained from rats, and incubated with stimulation by ConA treatment, as described above; treated cells were pre-treated with FDP, as described above, while control cells were not treated with FDP. After 5 days of incubation, RNA was extracted from the lymphocytes, using RNA-stat60. The integrity of RNA samples was evaluated by use of agarose-formaldehyde gel electrophoresis, and its quantity was determined spectrophotometrically.
The RNA was transcribed into complementary DNA (cDNA), using a reverse transcriptase enzyme. 10 μl of solution containing 1 μg of total cellular RNA was heated at 65° C. for 10 min, and then chilled on ice. To this solution was added 10 μl of a mixture containing 2× reverse transcriptase buffer (100 mM Tris-HCl, pH 8.3, 150 mM KC1, 6 MM MgCl2), 1 μg oligo(dT)12-18, 100 μg/ml of acetylated bovine serum albumin, 0.5 mM mixed deoxynucleotides (dNTP), 10 units of RNAasin, and 100 units of MMLV reverse transcriptase enzyme. The mixture was incubated for 45 min at 35° C., then chilled on ice.
The cDNA sequences for three specific interleukins (IL-1, IL-2, and IL-6) were then amplified, using polymerase chain reaction (PCR) techniques, using previously published sense and anti-sense primer sequences for rat IL-1, rat IL-2, and rat IL-6. […]

[5] = system: mongrel dogs challenged with methacholine; experiment: acute experimental asthma (bronchospasm) induced in dogs by methacholine inhalation; type: in vivo, dog
[6] = one subject, reported after 10 days of FDP inhalations

Compound: albuterol sulfate [reference compound]
- PEFR (human volunteers; albuterol sulfate inhalation solution 0.005% w/v in 0.9% NaCl, two occasions, identical procedures): did not induce any significant change

Compound: O=C(COP(=O)(O)O)[C@@H](O)[C@H](O)[C@H](O)COP(=O)(O)O [FDP, fructose-1,6-diphosphate]
- side effects (human volunteers; all tests on volunteers, other than decreased heart rates and increased pulmonary ventilation rates): no side effects were noticed
- blood pressure or body temperature (human volunteers; five volunteers, 10% FDP nebulized): did not elicit any changes
- mean peak expiratory flow rate (PEFR) following FDP administration (human volunteers; five volunteers, 10% FDP nebulized, 5 breaths (about 12 mg), baseline 471±29.6, P<0.005): 529 ± 35.6 L/min
- PEFR after inhalation session (human volunteers; one volunteer, 20% FDP solution for 10 min, 700 mg inhaled, baseline 616): 667 L/min
- side effects (human volunteers; one volunteer, high dosages (700 to 750 mg, 20% or 10% solution, ten minute inhalation)): no side effects were detected
- Activation Index (rat T-lymphocyte; Con-A plus 1:10 dilution of 10% FDP stock, Con-A alone 30718 ± 4316, no Con-A 527 ± 139): 101 ± 16 counts/min
- Activation Index (rat T-lymphocyte; Con-A plus 1:100 dilution of 10% FDP stock): 190 ± 42 counts/min
- Activation Index (rat T-lymphocyte; Con-A plus 1:250 dilution of 10% FDP stock): 383 ± 170 counts/min
- Activation Index (rat T-lymphocyte; Con-A plus 1:500 dilution of 10% FDP stock): 3592 ± 974 counts/min
- Activation Index (rat T-lymphocyte; Con-A plus 1:1000 dilution of 10% FDP stock): 12288 ± 1880 counts/min
- Activation Index (rat T-lymphocyte; Con-A plus 1:10,000 dilution of 10% FDP stock): 19046 ± 3237 counts/min
- ConA-induced activation and proliferation of T-cells (rat T-lymphocyte; result in words, cyclosporine A tested at 0.5 to 500 ng/ml): able to block ConA activation of the lymphocytes; also recorded: inhibited the ConA-induced activation and proliferation of T-cells in a dose dependent manner
- PEFR at 10 days after the first inhalation ([1]; one subject with chronic cough, repeated FDP inhalation, baseline 390, P<0.01): 520 L/min
- breathing [1, 6]: substantially improved
- coughing [1, 6]: nearly disappeared
- IL-2 production by the stimulated human T-lymphocytes (human IL-2): no detectable IL-2
- arterial pressure ([2]; FDP 2.5 gm/kg IP 30 min before compound 48/80 5 mg/kg IP, vs saline group, P<0.005, FIG. 1): significantly higher than in the saline group
- mortality ([2]; FDP 2.5 gm/kg IP before compound 48/80 5 mg/kg IP, survival = 48 hours, saline group 100%, P<0.001): 20%
- plasma potassium ([2]; FDP 2.5 gm/kg IP before compound 48/80 5 mg/kg IP, vs saline group, P<0.01, FIG. 2, 5 mg/kg): remained within normal values; also recorded: lower
- average arterial partial pressure of oxygen (PO2) ([2]; FDP 2.5 gm/kg IP before compound 48/80, saline group 98±9.2): 121±6.1 mm Hg
- Na+--K+ ATPase activity ([3]; oleander extract 1.0 mg): 19.32 ± 0.62 micromoles of inorganic phosph
- Na+--K+ ATPase activity ([3]; oleander extract 2.0 mg): 15.75 ± 0.39 micromoles of inorganic phosph
- RNA encoding the IL-2 protein [4]: no detectable levels of RNA encoding the IL-2 protein
- arterial blood oxygen partial pressure, Baseline ([5]; dogs pre-treated with aerosolized 10% FDP for 3 minutes, before methacholine): 89 ± 1.74 mm Hg
- arterial blood oxygen partial pressure (PaO2), 5 min ([5]; dogs pre-treated with aerosolized 10% FDP, 5 min after methacholine, controls 47 ± 2.85, p = 0.007): 70±5.62 mm Hg and 69 ± 6.49 mm Hg
- arterial blood oxygen partial pressure (PaO2), 15 min ([5]; dogs pre-treated with aerosolized 10% FDP, 15 min after methacholine, controls 53 ± 3.86, p < 0.001): 81 ± 3.36 mm Hg
- PCO2 ([5]; dogs, methacholine challenge with FDP treatment): no consistent alterations
- PaO2 level at 5 minutes after FDP treatment ([5]; five dogs treated with FDP after (not before) methacholine, p<0.006): 64±4.26 mm Hg
- PaO2 level at 30 minutes after FDP treatment ([5]; five dogs treated with FDP after (not before) methacholine, p<0.01): 80±4.04 mm Hg
- PaO2 level at 15 minutes after FDP treatment ([5]; five dogs treated with FDP after (not before) methacholine, p<0.02): 72±1.84 mm Hg
